The results in this text go back to PubChem BioAssay (NCI).

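Exposure lasted 48 hours, with cells grown in 96-well plates and compounds tested at five concentrations. TGI marks complete inhibition of growth.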

What all share (experiment): DTP human tumour cell line panel, 48 h
The subject of test [1] is COLO 205 colon.
For test [2], the system named is HCC-2998 colon.
In test [3] the test system is HCT-15 colon.
In test [4] the test system is HOP-92 NSCLC.
Test [5] deals with HT29 colon.
Test [6] relates to K-562 leukemia.
Test [7] relates to LOX IMVI melanoma.
The test system of test [8] is NCI-H226 lung.
In test [9] the test system is NCI-H522 lung.
Test [10] relates to OVCAR-3 ovarian.
In test [11] the test system is OVCAR-5 ovarian.
For test [12], the system named is OVCAR-8 ovarian.
The subject of test [13] is RPMI-8226 leukemia.
The test system of test [14] is RXF 393 renal.
Test [15] relates to SF-295 CNS.
Test [16] deals with U251 CNS.
The test system of test [17] is UACC-257 melanoma.
The subject of test [18] is UACC-62 melanoma.
Test [19] relates to UO-31 renal.
Test [20] concerns MCF7 breast.

`CC(=O)Nc1ccc(C2=N/C(=C\c3ccc(Cl)c(Cl)c3)C(=O)O2)cc1`: the concentration for total growth inhibition (TGI) in test [1], in test [2], in test [3], in test [4], in test [5] and in [6] was more than 100 µM throughout. Besides, the TGI in test [7], in test [8], in [9], in [10], in [11] and in test [12] was more than 100 µM in each case. Besides, the total growth inhibition concentration (TGI) in test [13], in test [14], in test [15], in test [16], in test [17] and in test [18] was more than 100 µM in each case. Moreover, the TGI (in general, the concentration giving total growth inhibition) in test [19] was more than 100 µM.

Regarding `CC1C(=O)C(C)C(c2cccs2)N(N=O)C1c1cccs1` (stereo not drawn), the concentration for total growth inhibition (TGI) in test [1], in [2], in [3], in test [4], in [5] and in test [6] was more than 100 µM in each case. In addition, the TGI in test [7], in test [20], in test [8], in test [9], in test [10] and in test [11] was more than 100 µM throughout. Further, the TGI in test [12], in test [13], in [14], in [15], in test [16] and in test [17] was more than 100 µM each time. Besides, the total growth inhibition concentration (TGI) in test [18] and in [19] was more than 100 µM each time.

`Nc1ccc2cc(S(=O)(=O)O)cc(O)c2c1N=Nc1ccc(NC(=O)Nc2ccc(N=Nc3c(N)ccc4cc(S(=O)(=O)O)cc(O)c34)c(S(=O)(=O)O)c2)cc1S(=O)(=O)O`: the TGI in test [1], in test [2], in [3], in test [4], in [5] and in test [6] was more than 100 µM in each case. Further, the TGI in test [7], in test [20], in test [8], in [9], in test [10] and in test [11] was more than 100 µM in each case. For the same compound, the concentration for total growth inhibition (TGI) in test [12], in test [14], in test [15], in test [16], in test [17] and in test [18] was more than 100 µM in each case. For the same compound, in test [19], the TGI was more than 100 µM.

Turning to `COc1cc(C2C(Cl)C(=O)N2NC(=O)c2ccc(NC(C)=O)cc2)cc(Br)c1O` (stereo not drawn), the TGI in test [1], in test [2], in [4], in [5], in test [6] and in test [8] was more than 100 µM in each case. Besides, the TGI in test [9], in [10], in test [11], in test [12], in test [13] and in [15] was more than 100 µM in each case. For the same compound, the TGI in test [16], in test [17], in test [18] and in [19] was more than 100 µM each time.

`COc1ccc(N2C(=O)C3c4[nH]c5ccccc5c4C4CCCCCCCC4C3C2=O)cc1` (stereo not drawn): the TGI in test [1], in test [2], in test [3], in test [5], in [6] and in [20] was more than 10 µM in each case. For the same compound, the total growth inhibition concentration (TGI) in test [8], in test [9], in test [10], in test [11], in test [12] and in [13] was more than 10 µM throughout. Further, the total growth inhibition concentration (TGI) in test [14], in test [15], in test [16], in test [18] and in [19] was more than 10 µM throughout.

On to `CN1C[C@H]2[C@@H](C1=O)[C@H](c1ccc([N+](=O)[O-])cc1)ON2C`, for which the TGI in test [1], in test [2], in test [3], in test [4], in [5] and in test [6] was more than 100 µM throughout. For the same compound, the concentration for total growth inhibition (TGI) in test [7], in test [20], in test [8], in test [9], in [10] and in test [11] was more than 100 µM each time. In addition, the TGI in [12], in [13], in test [15], in test [16], in test [17] and in test [19] was more than 100 µM each time.

In the case of `O=C1ON(Cc2ccccc2)C(c2ccccc2)N1c1ccccc1` (stereo not drawn), the concentration for total growth inhibition (TGI) in [1], in [2], in test [3], in [4], in test [5] and in test [6] was more than 100 µM each time. Also, the TGI in [7], in [20], in test [8], in test [9], in [10] and in [11] was more than 100 µM throughout. Also, the TGI in test [12], in [13], in [14], in [15], in test [16] and in test [17] was more than 100 µM in each case. Moreover, the TGI in [18] and in test [19] was more than 100 µM throughout.

Turning to `COc1ccc2c(C)cc(N/N=C/c3sccc3C)nc2c1`, the TGI in test [1] was determined as 17.9 µM; in test [2], 25.7 µM; in test [3], 20.3 µM; in [4], 47.5 µM; in test [5] it was 12.5 µM; in [7] it was 21.5 µM. In addition, the total growth inhibition concentration (TGI) in test [20] stood at 26.1 µM; in test [8], 25.9 µM; in test [9], 21.9 µM; in test [10] it was 10.6 µM; in [11] it was 28.1 µM; in [12], 30.3 µM. Moreover, the concentration for total growth inhibition (TGI) in test [13] was determined as 26.6 µM; in [14], 32 µM; in test [15], 28.4 µM; in [16], 51.9 µM; in test [17], 22.4 µM; in test [18], 34.9 µM. Besides, the TGI in test [19] worked out at 54.8 µM.
